{
  "source": "patent US6583132B1",
  "about": "“Oxidant scavengers” (Duke University, priority 1993, dated 2003)",
  "key": {"[1]": {"test_system": "Cortical cells", "assay": "Cell death of cortical cells by EthD-1 staining", "format": "cell-based, rat", "conditions": "concentration-response curves", "method": "Tissue culture: Mixed neuronal and glial cultures were prepared from embryonic day-18 rat cerebral cortices (Sprague-Dawley, Zivic Miller). Briefly, the cerebral cortices were dissected and enzymatically dissociated by incubation in Ca^++-, Mg^++-free Hank's balanced salt solution (HBSS) supplemented with 10 mM HEPES and 0.25% trypsin for 20 min. at 37° C. The tissue was rinsed and dispersed into single cell suspension by gentle passage through a fire polished Pasteur pipette. The cell suspension was centrifuged and resuspended in Minimum Essential Media (MEM), containing Earle's salts supplemented with 3 g/L glucose, 5% horse serum and 5% fetal bovine serum (growth media). […]\nNeurotoxicity studies: Neurotoxicity was determined by the measurement of LDH released in the supernatant media as previously described (Patel et al, Toxicol. Appl. Pharmacol. 115:124 (1991) and Neurotoxicology 14:35 (1992)). LDH was measured by the method of Vassault, Lactate dehydrogenase. […] Briefly, the cells were washed with HBSS, loaded with 20 μM EthD-1 for 30 min,. rinsed and viewed through fluorescence optics. The number of dead cells labeled with EthD-1 were counted in 4-6 randomly selected fields, the numbers averaged to give an estimate of cell death and the experiment was repeated 3 times."}, "[2]": {"biological_target": "T1, xanthine oxidase (Bos taurus, UniProt P80457)", "T1 construct": "purchased Boehringer Mannheim", "T1 sequence (P80457 whole entry)": "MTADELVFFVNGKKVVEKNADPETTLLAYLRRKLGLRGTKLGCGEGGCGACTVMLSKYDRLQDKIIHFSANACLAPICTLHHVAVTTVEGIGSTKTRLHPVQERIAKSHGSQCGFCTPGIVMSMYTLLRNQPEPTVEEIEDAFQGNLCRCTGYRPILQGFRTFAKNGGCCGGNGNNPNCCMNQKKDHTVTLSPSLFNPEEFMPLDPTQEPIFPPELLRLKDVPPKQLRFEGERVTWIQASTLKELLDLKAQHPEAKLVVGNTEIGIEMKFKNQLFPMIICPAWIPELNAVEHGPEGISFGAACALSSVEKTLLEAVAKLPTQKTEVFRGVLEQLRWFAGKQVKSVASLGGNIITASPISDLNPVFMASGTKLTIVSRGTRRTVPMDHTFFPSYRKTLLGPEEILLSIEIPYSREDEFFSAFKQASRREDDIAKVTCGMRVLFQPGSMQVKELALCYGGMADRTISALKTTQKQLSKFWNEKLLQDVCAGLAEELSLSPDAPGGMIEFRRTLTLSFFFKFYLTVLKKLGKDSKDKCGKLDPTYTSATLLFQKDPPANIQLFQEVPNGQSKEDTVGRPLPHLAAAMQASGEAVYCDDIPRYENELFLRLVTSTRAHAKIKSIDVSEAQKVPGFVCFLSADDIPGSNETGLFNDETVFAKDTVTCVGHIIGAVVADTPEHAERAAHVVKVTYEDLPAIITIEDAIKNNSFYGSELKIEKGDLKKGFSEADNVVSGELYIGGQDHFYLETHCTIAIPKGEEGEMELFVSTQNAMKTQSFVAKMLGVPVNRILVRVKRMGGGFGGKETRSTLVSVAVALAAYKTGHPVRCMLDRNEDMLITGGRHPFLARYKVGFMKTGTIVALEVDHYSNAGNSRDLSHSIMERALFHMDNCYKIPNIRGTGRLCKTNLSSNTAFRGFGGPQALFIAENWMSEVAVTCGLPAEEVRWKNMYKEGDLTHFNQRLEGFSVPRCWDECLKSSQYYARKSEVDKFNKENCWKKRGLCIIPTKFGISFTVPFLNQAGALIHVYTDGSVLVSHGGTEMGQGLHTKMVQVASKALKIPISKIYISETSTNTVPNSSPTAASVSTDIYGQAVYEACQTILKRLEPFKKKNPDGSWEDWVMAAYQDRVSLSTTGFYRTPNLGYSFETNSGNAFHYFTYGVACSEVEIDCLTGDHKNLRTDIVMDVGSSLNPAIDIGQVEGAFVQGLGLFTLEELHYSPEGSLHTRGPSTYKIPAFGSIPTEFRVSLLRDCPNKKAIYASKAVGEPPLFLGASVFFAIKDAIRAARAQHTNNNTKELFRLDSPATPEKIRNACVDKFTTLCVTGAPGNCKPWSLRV", "assay": "Inhibition of xanthine oxidase", "format": "biochemical", "conditions": "for Ki: pH 10, 25° C., 1 nM xanthine oxidase", "method": "In a first study, assays were performed in a 1 ml quartz cuvette containing 50 mM carbonate buffer, pH 10, 0.1 mM EDTA, 1 nM xanthine oxidase (Boehringer Mannheim) at 25° C. Xanthine oxidase activity was measured spectrophotometrically by following the […] over time at 295 nm. Four concentrations of xanthine (25, 50, 250, 500 μM) and 2 concentrations of MnTBAP (5, 10 μM) were used. Two inhibition constants were then derived from the curve's intercepts (Kii=5.5 μM) and slopes (Kis=15 μM)."}, "[3]": {"test_system": "rat cortical cells", "assay": "Neurotoxicity (LDH release) in cortical cell culture", "format": "cell-based", "method": "(§1) Tissue culture: Mixed neuronal and glial cultures were prepared from embryonic day-18 rat cerebral cortices (Sprague-Dawley, Zivic Miller). Briefly, the cerebral cortices were dissected and enzymatically dissociated by incubation in Ca^++-, Mg^++-free Hank's balanced salt solution (HBSS) supplemented with 10 mM HEPES and 0.25% trypsin for 20 min. at 37° C. The tissue was rinsed and dispersed into single cell suspension by gentle passage through a fire polished Pasteur pipette. The cell suspension was centrifuged and resuspended in Minimum Essential Media (MEM), containing Earle's salts supplemented with 3 g/L glucose, 5% horse serum and 5% fetal bovine serum (growth media). The cells were plated in poly-D-lysine-coated multi-well plates: 12-well plates for aconitase measurement, and 24 well plates for toxicity experiments. Cells were maintained at 37° C. in a humidified incubator with 5% CO2/95% air in growth media. Media was not replaced so as to reduce glial overgrowth and neuronal loss. Mature cells (14-17 days in vitro) were used for all experiments.\n(§2) Cell treatment: The growth media was replaced with MEM supplemented with 25 mM glucose (MEM-g). For both neurotoxicity studies and aconitase measurement, cells were incubated in the designated treatment for the indicated length of time at 37° C. Unless otherwise specified, antagonists or SOD-mimetics were added 15 min. prior to agonists. For measurement of neurotoxicity, cells were incubated with treatments for 18 hr at 37° C. in MEM-g. To access the ability of antagonists to inhibit acute NMDA toxicity or rescue cells from an ongoing NMDA insult, an alternate paradigm of NMDA treatment was used in addition to the one describe above. In this paradigm, growth media was replaced with HBSS^+ (Ca^++-, Mg^++-free Hank's Balanced Salt Solution supplemented with 2 mM CaCl2, 1 mM NaHCO3, 10 mM HEPES and 5 μM glycine), cells were treated with vehicle or 100 μM NMDA for 15 min. after which HBSS^+ was replaced with MEM-g and cells were returned to the incubator for 18 additional hrs. Antagonsists or SOD-mimetics were added to the cells 15 min. before NMDA exposure or 15, 30 or 60 min. following final media replacement. For determination of Ca^++-dependence, cells were incubated in HBSS^+ with no added Ca^++. When kainate (KA) was used as an agonist, 100 μM D-APV was routinely included to block secondary NMDA receptor activation. Catalase (100 U/ml) was always included when xanthine plus xanthine oxidase (X+XO) was used as a treatment to rule out the contribution of hydrogen peroxide.\nNeurotoxicity studies: Neurotoxicity was determined by the measurement of LDH released in the supernatant media as previously described (Patel et al, Toxicol. Appl. Pharmacol. 115:124 (1991) and Neurotoxicology 14:35 (1992)). LDH was measured by the method of Vassault, Lactate dehydrogenase. In: Methods of Enzymatic Analysis, Bergmeyer HU (ed), Verlag Chemie, Weinheim, pp. 118-126 (1983). Additionally, cell death was confirmed with ethidium-1 homodimer (EthD-1). Briefly, the cells were washed with HBSS, loaded with 20 μM EthD-1 for 30 min,. rinsed and viewed through fluorescence optics. The number of dead cells labeled with EthD-1 were counted in 4-6 randomly selected fields, the numbers averaged to give an estimate of cell death and the experiment was repeated 3 times."}, "[4]": {"test_system": "aconitase", "assay": "Aconitase activity in cortical cell lysates", "format": "cell-based, rat", "conditions": "200 μM MnTBAP", "method": "as §1, §2\nAconitase measurement: For the measurement of aconitase, following treatment with agents, media was removed and cells lysed in ice-cold 50 mM, Tris/HCl, pH 7.4 containing 0.6 mM MnCl2, 1 mM L-cysteine, 1 mM citrate and 0.5% Triton-X 100. The aconitase activity of cell lysates was measured spectrophotometrically by monitoring the formation of cis-aconitate from isocitrate at 240 nm in 50 mM Tris/HCl, pH 7.4, containing 0.6 mM MnCl2 and 20 mM isocitrate at 25° C. (Kreb and Holzach, Biochem. J. 52:527 (1952); Gardner and Fridovich, J. Biol. Chem. 267:8757 (1992)). […] Aconitase activity in cortical cell lysates was inhibited by 0.1 mM potassium ferricyanide or by boiling of sample."}, "[5]": {"test_system": "Calf pulmonary endothelial cell (CPA-47) line", "assay": "Glucose oxidase hydrogen peroxide injury of CPA-47, Cr^51 release", "format": "cell-based", "conditions": "glucose oxidase 100 Mu/ml, 4 hours; 1 hour pretreatment", "method": "(§3) Calf pulmonary endothelial cell (CPA-47) line was grown to near confluence in 12-well plates with F-12K medium containing 10% fetal calf serum. CPA-47 cells were loaded with Cr^51 as previously described by Simon et al J. Clin. Invest. 78:1375 (1986) in high glucose minimum essential medium (DMEM). Cells were pretreated with MnTBAP (100 μM) for 1 hour and then exposed to various concentrations of hydrogen peroxide generator, glucose oxidase, for 4 hours. Cell injury was then quantitated as the specific Cr^51 release from CPA-47 cells which has been adjusted for spontaneous Cr51 release.\nas §3, with “(J.” for “J.”, “(1986))” for “(1986)”, “various concentrations of either: (A) MnTBAP; (B) MnTMPyP; (C) ZnTBAP; or (D) CuZnSOD” for “MnTBAP (100 μM)”, “the” for “various concentrations of”, “oxidase (100 Mu/ml),” for “oxidase,”, “Cr^51” for “Cr51”"}, "[6]": {"test_system": "Rat pulmonary epithelial cell cultures (L2)", "assay": "Paraquat-induced injury of L2 cells, LDH release", "format": "cell-based", "conditions": "100 μM; Paraquat 2.5 mM, 48 hours"}},
  "note": "Like-named read-outs stand apart in the source and are kept apart here.",
  "data": [
    {"substance": "Mn(III) tetrakis (4-benzoic acid)porphyrin [MnTBAP]", "values": [
      {"measurement": "neuroprotective effects against PQ^++, NMDA and KA toxicities", "setting": "[1]", "value": "markedly increased neuroprotective effects in comparison to ZnTBAP"},
      {"measurement": "manner of inhibition of xanthine oxidase", "setting": "[2]", "value": "non-competitive"},
      {"measurement": "Ki", "setting": "[2]; read-out: Kii (inhibition constant from intercepts)", "value": 5.5, "unit": "µM"},
      {"measurement": "Ki", "setting": "[2]; read-out: Kis (inhibition constant from slopes)", "value": 15, "unit": "µM"},
      {"measurement": "PQ^++-, NMDA- and KA-mediated cell death (LDH release)", "setting": "[3]; 200 μM MnTBAP, 18 hr", "value": "markedly inhibited"},
      {"measurement": "shift of concentration-response curve for NMDA (LDH)", "setting": "[3]; 200 μM MnTBAP, 18 hr", "value": "complete protection at low concentrations of NMDA"},
      {"measurement": "reduction of LDH release", "setting": "[3]; 200 μM added 30 min. after 15 min. 100 μM NMDA", "value": 30, "unit": "%"},
      {"measurement": "reduction of LDH release", "setting": "[3]; 200 μM added 60 min. after 15 min. 100 μM NMDA", "value": 25, "unit": "%"},
      {"measurement": "reduction of LDH release / protective effect", "setting": "[3]; added 15 min. after 15 min. 100 μM NMDA, 200 μM MnTBAP, 10 μM MK801", "value": 38, "unit": "%"},
      {"measurement": "reduction of LDH release", "setting": "[3]; condition \"pre\": 15 min. prior to and during 15 min. 100 μM NMDA, measured 18 hr. later", "value": 25, "unit": "%"},
      {"measurement": "reduction of LDH release", "setting": "[3]; condition \"pre+post\", 100 μM NMDA 15 min.", "value": 51, "unit": "%"},
      {"measurement": "PQ^++-, NMDA- and KA-mediated decreases of aconitase activity", "setting": "[4]", "value": "markedly inhibited"},
      {"measurement": "hydrogen peroxide-induced endothelial cell injury", "setting": "[5]", "value": "reduction"},
      {"measurement": "paraquat-induced LDH release", "setting": "[6]", "value": "decrease paraquat-induced LDH release"}
    ]}
  ]
}
